From patent US20160312240A1, “MODIFIED PYR/PYL RECEPTORS ACTIVATED BY ORTHOGONAL LIGANDS” (The Regents of the University of California, priority 2010, published 2016)

Tests used:
[1] = test system: PYR1 variants 27B-1, 27B-2, 27B-3, 27B-4, 27B-7, 27B-8 (Table 7); assay: MAV99 growth selection, second round of shuffling (27B' library); assay type: cell-based, Arabidopsis; settings: 20 μM fenhexamid; media lacking uracil; Table 7 variants
Procedure: To improve fenhexamid receptor sensitivity, DNA shuffling was employed using the same general experimental scheme outlined previously. Briefly, equimolar amounts of plasmid DNA for the fenhexamid receptors shown in Table 1 were pooled and combined with an equimolar amount of the ePCR1 library DNA. The pooled templates were utilized for DNA shuffling, which was conducted as described in Example 1. A library (named “27”) of ˜400,000 shuffled variants was prepared. The DNA for this library was introduced into the MAV99 pAD-HAB 1 yeast strain as described above and the resulting yeast cells collected and grown on FOA-containing plates to reduce constitutive mutants in the library, yielding the 27B′ library. The 27B′ library was plated onto media lacking uracil but containing 20 μM fenhexamid. ˜50 positives were selected from these plates and subsequently retested on media lacking […] to distinguish constitutive mutants (i.e., false positives) from those mutants that grow specifically in response to fenhexamid (i.e., true positives). The PYR1 coding sequences for the true positives were sequenced to yield the following series of fenhexamid-responsive PYR1 variants (Table 7): […]

[2] = test system: 35S::GFP-PYL2 K64R,Y124H,M164I,V67I,V114I transgenic plants; assay: Seedling germination/growth on fenhexamid; assay type: in vivo, Arabidopsis; settings: 100 μM fenhexamid; T2 seedlings expressing mutant PYL2; FIG. 4
Source text: (§1) FIG. 4. Characterization of seedling responses to fenhexamid in 35S::GFP-PYL2 K64R, Y124H, M164I, V67I, V114I transgenic plants. […] Shown are segregating GFP-expressing T2 seedlings from primary transgenic plants (T1). Columbia is the wild-type background and is non-transgenic. Two independent PYL2 K64R, Y124H, M164I, V67I, V114I (“PYL2 MUT”) transgenic lines were characterized in addition to a wild-type PYL2 overexpression line. Seeds from respective lines were germinated in the dark on media containing 100 μM fenhexamid and scored two days post-imbibition.
(§2) To investigate if the fenhexamid response observed in yeast and in vitro experiments would function in plants, transgenic 35S::GFP-PYL2 and 35S::GFP-PYL2^K64R,Y124H,M164I,V67I,V114I plants were constructed using standard molecular cloning methods into a modified version of pEGAD (Cutler et al., Proc Natl Acad Sci U.S.A. 97:3718-3723 (2000)) in which a 6×-histidine tag was added onto the N-terminus of GFP. Transgenic plants were made using the floral-dip method and primary transgenics (T1) identified by screening seedlings by epi-fluorescence using a Leica GFP dissecting microscope. The GFP^+ transgenic plants were grown to maturity and T2 seed collected for further analyses. […]

[3] = test system: control lines (Columbia wild-type; wild-type PYL2 overexpression line); assay: Seedling germination/growth on fenhexamid; assay type: in vivo, Arabidopsis; settings: 100 μM fenhexamid, germinated in the dark, scored two days post-imbibition, FIG. 4
Source text: as §1, §2

CC1(C(=O)Nc2ccc(O)c(Cl)c2Cl)CCCCC1 [fenhexamid]
Growth in response to fenhexamid (selection) [1]: fenhexamid-responsive
Seedling growth on fenhexamid [2]: strong growth inhibition
Post-germination arrest on fenhexamid [3]: do not
